Patent publication US20210261561A1, “BICYCLIC HETEROCYCLE DERIVATIVES HAVING SELECTIVE BACE1 INHIBITORY ACTIVITY” (SHIONOGI & CO., LTD., priority 2018, published 2021)

System: Abeta 1-37, Abeta 1-38, Abeta 1-40 and Abeta 1-42 in cerebrospinal fluid (CSF)
Test: Pharmacology in the beagle dog, beta-amyloid profile in CSF (Test Example 18-2)
Assay type: in vivo
Details: for % Decrease in Abeta 1-42 at 24 h^(a) or 25 h^(b) post dosing compared to own baseline: 24 h or 25 h
Experimental: Test compounds were tested to evaluate the effect on the beta-amyloid profile in cerebrospinal fluid (CSF) of dogs after a single dose, in combination with pharmacokinetic (PK) follow up and limited safety evaluation.
For each of compound II-6 or II-10, four beagle dogs (2 males, 2 females) were dosed with vehicle (1 mL/kg of an aqueous solution of 20% cyclodextrin) and 12 beagle dogs (2 males and 2 females per dosage group) were dosed with test compounds as follows:
In the case of compounds II-2, II-3 and II-18, two beagle dogs (1 male, 1 female) were dosed with vehicle (1 mL/kg of an aqueous solution of 20% cyclodextrin) and 4 beagle dogs (2 males and 2 females) were dosed with test compound (II-2, II-3, or II-18) at the doses indicated in the following Table in an aqueous 20% cyclodextrin solution with a concentration in mg/mL identical to the dose given in mg/kg) on an empty stomach.
CSF was taken in conscious animals directly from the lateral ventricle via a cannula which was screwed in the skull and covered with subcutaneous tissue and skin, before and at 4, 8, 25 and 49 hours after dosing. Eight hours after dosing the animals got access to their regular meal for 30 minutes. Blood was taken for PK follow up (0.5, 1, 2, 4, 8, 25 and 49 hours) and serum samples for biochemistry were taken before and at 8 and 25 h after dosing. The CSF samples were used for measurement of Abeta 1-37, Abeta 1-38, Abeta 1-40 and Abeta 1-42.

## [2H]C1([2H])Oc2cnc(C(=O)Nc3ccc(F)c([C@]4(CF)CC[C@@](C)(S(C)(=O)=O)C(N)=N4)c3)cc2OC1([2H])[2H] [II-2]
Single dose 0.63 mg/kg
  % Decrease in Abeta 1-42 at 8 h post dosing compared to own baseline: 33%

## [2H]C1([2H])Oc2cnc(C(=O)Nc3ccc(F)c([C@]4(CF)CC[C@@](C)(S(C)(=O)=O)C(N)=N4)c3)cc2OC1([2H])[2H] [II-3]
Single dose 5 mg/kg
  % Decrease in Abeta 1-42 at 8 h post dosing compared to own baseline: 61%

## C[C@@]1(S(C)(=O)=O)CC[C@@](CF)(c2cc(NC(=O)c3cc4c(cn3)OC(F)(F)O4)ccc2F)N=C1N [II-6]
Single dose 0.16 mg/kg
  % Decrease in Abeta 1-42 at 8 h post dosing compared to own baseline: 51%
  % Decrease in Abeta 1-42 at 24 h^(a) or 25 h^(b) post dosing compared to own baseline: 31%
Single dose 0.31 mg/kg
  % Decrease in Abeta 1-42 at 8 h post dosing compared to own baseline: 69%
  % Decrease in Abeta 1-42 at 49 h post dosing compared to own baseline: 22%
Single dose 0.63 mg/kg
  % Decrease in Abeta 1-42 at 8 h post dosing compared to own baseline: 68%
  % Decrease in Abeta 1-42 at 24 h^(a) or 25 h^(b) post dosing compared to own baseline: 62%

## C[C@@]1(S(C)(=O)=O)CC[C@@](CF)(c2cc(NC(=O)c3cc4c(cn3)OC(F)(F)CO4)ccc2F)N=C1N [II-10]
Single dose 0.16 mg/kg
  % Decrease in Abeta 1-42 at 8 h post dosing compared to own baseline: 37%
Single dose 0.63 mg/kg
  % Decrease in Abeta 1-42 at 8 h post dosing compared to own baseline: 68%
  % Decrease in Abeta 1-42 at 24 h^(a) or 25 h^(b) post dosing compared to own baseline: 21%
Single dose 1.25 mg/kg
  % Decrease in Abeta 1-42 at 8 h post dosing compared to own baseline: 73%
  % Decrease in Abeta 1-42 at 24 h^(a) or 25 h^(b) post dosing compared to own baseline: 27%
Single dose 2.5 mg/kg
  % Decrease in Abeta 1-42 at 8 h post dosing compared to own baseline: 76%
  % Decrease in Abeta 1-42 at 24 h^(a) or 25 h^(b) post dosing compared to own baseline: 28%

## CCS(=O)(=O)[C@]1(C)CC[C@@](CF)(c2cc(NC(=O)c3cc4c(cn3)OC(F)(F)O4)ccc2F)N=C1N [II-20]
Single dose 0.16 mg/kg
  % Decrease in Abeta 1-42 at 8 h post dosing compared to own baseline: 51%
  % Decrease in Abeta 1-42 at 24 h^(a) or 25 h^(b) post dosing compared to own baseline: 30%
  % Decrease in Abeta 1-42 at 49 h post dosing compared to own baseline: 25%
Single dose 0.63 mg/kg
  % Decrease in Abeta 1-42 at 8 h post dosing compared to own baseline: 72%
  % Decrease in Abeta 1-42 at 24 h^(a) or 25 h^(b) post dosing compared to own baseline: 70%
  % Decrease in Abeta 1-42 at 49 h post dosing compared to own baseline: 52%
Single dose 1 mg/kg
  % Decrease in Abeta 1-42 at 8 h post dosing compared to own baseline: 73%
  % Decrease in Abeta 1-42 at 24 h^(a) or 25 h^(b) post dosing compared to own baseline: 76%
  % Decrease in Abeta 1-42 at 49 h post dosing compared to own baseline: 58%
Single dose 3.75 mg/kg
  % Decrease in Abeta 1-42 at 8 h post dosing compared to own baseline: 86%
  % Decrease in Abeta 1-42 at 24 h^(a) or 25 h^(b) post dosing compared to own baseline: 91%
  % Decrease in Abeta 1-42 at 49 h post dosing compared to own baseline: 85%
